Here are results for six compounds from US20260159474A1, “Aminoindane Compounds and Compositions and Methods of Their Therapeutic Use” (Solvonis Therapeutics Ireland Holdings Limited, priority 2021, published 2026).

One series has as its target T1, CYP3A4 (Homo sapiens, UniProt P08684).
T1 construct: purchased Life Technologies P2377; host or cells: Baculosomes
Nature of the series: CYP450 inhibition, fluorescent probe substrate. The series is classed as in vitro ADME. As to the method: Methods: Recombinant human CYP450 isoenzymes were used to metabolize pro-fluorescent probe substrates to fluorescent products. IC50 values determined from the effect of test compounds on the metabolism of these probe substrates were then used to determine inhibitory potency against CYP450 isoforms. The chemical reagents included:
The test system was based on a three-step procedure with a “mix and read” format, where reaction and reading were performed at 37° C. The assays described herein measure in vitro inhibitory effects (pIC50) of compounds on the human P450 isoforms (1A2, 2B6, 2C8, 2C9, 2C19, 2D6, 3A4) expressed in recombinant microsomes. Pro-fluorescent probe substrates were metabolized to fluorescent products by the enzymes. Fluorescence was measured in kinetic mode (1 read/minutes for 10 minutes), and the fluorescence rate was calculated.
Inhibition of the fluorescent signal resulting from P450 activation indicated inhibitory activity and facilitated calculation of the compound pIC50. A quality check was included in each compound plate, wherein the signal window was monitored by performing Z′ calculations ([…] ) and the antagonist potency of internal standards was within the pIC50±2SD range. Concentration response curves (CRCs) of compounds were run on two different test occasions (n 2) by preparing serial dilutions from the same compound stock solution.
To prepare the compound plate, test compounds serial dilutions 1 to 3 were performed from a 10 mM stock solution in DMSO by Biomek FX to generate 10 point CRC with the highest concentrations in columns 3 and 13.
100% DMSO was placed in columns 1 and 2 and used for assay low controls. CYP inhibitor (10 mM miconazole solution in DMSO) was placed in columns 23 and 24 and served as an assay high controls. 1 μL copy plates were then stamped into V-bottom drug plates at a concentration that is 200 fold the final assay concentration. The copy plates were diluted prior to the experiment with assay buffer to reach 4 times the final assay concentration (2% w/v DMSO).
A reference compound (e.g., miconazole) was included in each compound plate in row A, column 3 and 13. The reference compound was diluted and stamped together with test compounds. The final concentrations of the 10 point CRCs of test compounds in the assay plate were 5.00E-05; 1.67E-05; 5.56E-06; 1.85E-06; 6.17E-07; 2.06E-07; 6.86E-08; 2.29E-08; 7.62E-09 and 2.54E-09, respectively. All solutions were prepared immediately before the assay.
Microsomes were added to the buffer prior to the substrate addition. The solution was carefully mixed without vortexing. 30 μL/well of the mixture was then transferred to the assay plate (384-well black plate) using a 16-channel pipette. For each P450 isoformn, a separate plate was prepared and labeled with a barcode. For fluorescence measurement, 10 μL/well of the test compounds were transferred from the compound plate to the assay plate using Biomek FX and the appropriate protocol. The assay plate was then incubated at 37° C. for 10 minutes on a shaker to allow for the interaction between compounds and enzymes.
10 μL/well of the cofactor was then added to the assay plate using the Multidrop before placing the assay plate in the plate reader EnVision to measure fluorescence. The overall final DMSO concentration for the assay was 0.5%. Plates were read every minute for 10 minutes, according to a P450 isoform specific protocol, as shown below.
The CYP3A4 and CYP2C8 were assayed using the Vivid CYP3A4 Baculosomes, CYP2C8 Baculosomes and Vivid DBOMF Substrate (Life Technologies, cat. P2377, PV6138 and P2974 respectively), while 2B6 is tested by Vivid CYP2B6 Baculosomes and Vivid BOMCC Substrate (Life Technologies, cat. P3028 and P2975). Test compounds were prepared as specified above. […]

Series [1] in a line: Intrinsic clearance in rat liver microsomes. The series is classed as in vitro ADME. As to conditions: for microsomal CLint at 0.5 μM: pH 7.4, read-out: Cl (μL/min/mg protein) - Rat Microsomes. As to the method:
Methods: The general procedure involved incubating test compounds with liver microsomes and subsequently detecting the compounds to determine intrinsic clearance. Clearance was estimated from the rate of depletion k (min-1), the volume of the incubation V (mL), and the amount of microsomal proteins in the incubation M (mg). Intrinsic clearance is defined by the following equation: Clint=k*V/M.
Values for CLint are expressed as μL/min/mg liver microsomes. Verapamil and dextromethorphan were used as positive controls for CYP3A4 and CYP2D6 isoforms, respectively, to confirm metabolic activity. Stock solutions were prepared in DMSO for therapeutic compounds and positive controls verapamil and dextromethorphan (10 mM for all). Working solutions were prepared by diluting stock in MeOH to reach […]. However, this concentration can be varied, e.g., when the test item is not soluble in the selected solvent.
Prior to experimentation, frozen liver microsomes were thawed in a water bath at 37° C. and kept on ice until use. The microsomes were then diluted with 50 mM potassium phosphate buffer pH 7.4 to a protein concentration of 0.56 mg/mL. To prepare test and control items in final incubation conditions, 5 μL of test compound and positive control working solutions were added to 445 μL of microsomes incubation mixture at 0.56 mg/mL and 50 μL of regenerating system.
As it relates to the automated incubation procedure for microsomes incubation, the following procedure was followed. Briefly, 150 μL of quenching solution (ACN containing an appropriate Internal Standard, i.e. Rolipram and Diclofenac for positive and negative ion mode, respectively) was manually dispensed or dispensed by using the Hamilton system in each well of 96 deep well 1 mL plates. Next, 800-1000 μL-aliquots of NADPH regenerating system were pre-warmed at 37° C. for 5 minutes. 5 μL of 50 µM test items and control were added to 445 μL of the 0.56 mg/mL microsomes solution, and the incubation mixture was pre-warmed in a 96 deep well 2 mL plate (incubation plate) at 37° C. for 5 minutes. The incubation reactions were initiated by adding 50 μL of pre-warmed NADPH regenerating system to the incubation mixtures.
50 μL-aliquots were sampled from incubation mixtures at: 0, 3, 10, 15, 30, and 45 minutes. The samples were centrifuged at 3,000 rpm for 10 minutes and further diluted in order to optimize the analytical condition prior to the LC MS/MS or Rapid Fire-MS/MS analysis. Incubations of test items were run in duplicate (n=2) with a single positive control (n=1). For sample analysis, an LC-MS/MS system was used to monitor the test samples/control to internal standard peak area ratios as representative of the test or control item's concentration. Data from test item incubation was processed to give mean values where applicable. Metabolic stability was calculated from the ratio of peak area of the remaining test or control item with internal standard versus time.
Peak areas for test and control items were integrated using Integrator Software from Agilent or Analyst or MultiQuant Software from AB SciexTM and were exported to XLFit or Morphit (The Edge), which were designed to calculate in vitro metabolic stability parameters. The integrated peak areas of the test and control items at the selected time points were divided by the respective peak areas of the IS, and the percent of parent remaining was calculated by normalizing the peak area ratio of parent to IS at 0 min. Observed rate constant (kobs) for parent degradation was calculated by determining the slope of the line of the graph of the natural log of percentage parent remaining versus time of incubation. This was scaled for the protein in the incubation relative to that in the liver.

The mark [2] stands for this setting: recombinant human isoenzyme, n=2, read-out: Inhibition of CYP3A4, IC50.

Like-named read-outs stand apart in the source and are kept apart here.

T1 sequence (P08684 whole entry): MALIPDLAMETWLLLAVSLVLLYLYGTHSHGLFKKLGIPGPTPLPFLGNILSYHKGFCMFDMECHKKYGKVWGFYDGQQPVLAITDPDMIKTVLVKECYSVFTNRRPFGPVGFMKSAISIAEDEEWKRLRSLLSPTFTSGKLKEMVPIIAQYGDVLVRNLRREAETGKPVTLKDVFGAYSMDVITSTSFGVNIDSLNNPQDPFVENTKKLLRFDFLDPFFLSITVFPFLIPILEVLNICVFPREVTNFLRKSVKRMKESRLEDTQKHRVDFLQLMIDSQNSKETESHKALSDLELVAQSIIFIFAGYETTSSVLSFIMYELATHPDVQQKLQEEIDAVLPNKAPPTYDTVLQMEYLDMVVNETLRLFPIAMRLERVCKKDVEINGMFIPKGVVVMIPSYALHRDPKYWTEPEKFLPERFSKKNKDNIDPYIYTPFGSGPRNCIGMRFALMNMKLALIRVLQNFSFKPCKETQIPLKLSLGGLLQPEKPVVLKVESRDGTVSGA

Broadly, the IC50 is the concentration that inhibits the measured activity by half. For `COC(=O)c1ccc2c(c1)CC(N)C2` (stereo not shown) [CMP-405, 2-aminoindane-5-methylcarboxylate], the IC50 at CYP3A4 (setting [2]) was more than 50 µM. In series [1], the microsomal CLint at 0.5 μM is 143 µL/min/mg.

With `COC(=O)c1cc2c(cc1OC)CC(N)C2` (stereo not shown) [CMP-401], the IC50 on CYP3A4 (setting [2]) was more than 50 µM. In series [1], the microsomal CLint at 0.5 μM turned out to be 121 µL/min/mg.

On CYP3A4, `COc1ccc2c(c1)CC(N)C2` (stereo not shown) [MEAI, 5-methoxy-2-aminoindane] had an IC50 of more than 50 µM. The microsomal CLint at 0.5 μM in series [1] came out at 156 µL/min/mg.

As for `COc1cc2c(cc1C)CC(N)C2` (stereo not shown) [MMAI, 5-methoxy-6-methyl-2-aminoindane], the IC50 against CYP3A4 is more than 50 µM. Also, the microsomal CLint at 0.5 μM in series [1] came out at 200 µL/min/mg.

Take `COC(=O)COc1ccc2c(c1)CC(N)C2` (stereo not shown) [CMP-402]: the IC50 at CYP3A4 (setting [2]) is more than 50 µM. In series [1], the “Cl (μL/min/mg protein) - Rat Microsomes” value is on record as “greatest clearance” and the microsomal CLint at 0.5 μM was 2050 µL/min/mg.

Turning to `CNC(C)Cc1ccc2c(c1)OCO2` (stereo not shown) [MDMA], the IC50 at CYP3A4 (setting [2]) was more than 50 µM. Besides, the “Cl (μL/min/mg protein) - Rat Microsomes” value in series [1] stood at 395 μL/min/mg protein.
